Laboratory results reported in PMC5834943 (ACS chemical biology, 2017).

What was measured:
[1] = molecular target: T1, branched-chain aminotransferase (MtIlvE) (Mycobacterium tuberculosis, UniProt P9WQ75); test: biochemical; type: binding
[2] = molecular target: T1, branched-chain aminotransferase (MtIlvE); test: […]; type: biochemical; settings: read-out: Ki

T1 sequence (P9WQ75 whole entry): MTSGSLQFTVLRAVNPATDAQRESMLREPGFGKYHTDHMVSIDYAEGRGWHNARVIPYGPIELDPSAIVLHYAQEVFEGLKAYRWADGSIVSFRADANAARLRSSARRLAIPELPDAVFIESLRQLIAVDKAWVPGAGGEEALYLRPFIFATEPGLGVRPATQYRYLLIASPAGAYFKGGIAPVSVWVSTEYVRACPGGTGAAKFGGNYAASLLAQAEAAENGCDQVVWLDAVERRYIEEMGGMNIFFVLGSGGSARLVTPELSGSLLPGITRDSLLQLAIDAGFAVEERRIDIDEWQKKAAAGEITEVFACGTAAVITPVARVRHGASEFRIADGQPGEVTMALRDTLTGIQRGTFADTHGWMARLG

| Structure (SMILES) | kinact/KI [1] | KI (inactivation) [2] |
| --- | --- | --- |
| N[C@@H]1CON=C1O [DCS, D-Cycloserine] | 0.12 M⁻¹ s⁻¹ | – |
| N[C@H]1CONC1=O [LCS, L-cycloserine] | – | 88 µM |
